Assay results reported in PMC10754745, “In silico prediction and in vitro assessment of novel heterocyclics with antimalarial activity” (Parasitology Research, 2023).

How the values were obtained:
[1] = tested on: P. falciparum 3D7; experiment: Growth inhibition of P. falciparum 3D7 cultures, SYBR Green assay; type: cell-based, Plasmodium falciparum; conditions: P. falciparum 3D7, 72 h, triplicate
Description: Antimalarial activity of the selected compounds was assessed by growth inhibition assays. P. falciparum 3D7 parasites (a chloroquine-sensitive strain) kindly supplied by the Biodefense and Emerging Infections Research Resources Repository (BEI resources, NIAID, NIH, USA) were cultured by the Trager-Jensen method (Trager and Jensen [1976]; Moll et al. [2013]) with modifications. Briefly, parasite-infected red blood cells (RBCs) were kept in continuous culture in complete culture medium (CCM) containing RPMI 1640 (GIBCO), 25 mM hydroxypipazine-N’-2-ethane sulfonic acid (HEPES, Sigma), and 25 μg/mL gentamicin. […] [2013]). Parasite growth was monitored by preparing Giemsa-stained smears. The parasitemia was determined by examination of at least 10 high power magnification fields (hpf) (Moll et al. [2013]), and levels of parasitemia were kept between 5 and 10%. Artemisinin (Sigma) and chloroquine diphosphate salt (Sigma) were used as control drugs. […] Susceptibility assays were performed by the SYBR Green method with modifications (Kato et al. [2018]). Briefly, P. falciparum-infected RBCs cultured under standard conditions were plated at about 2% parasitemia (2% hematocrit), in 96-well microplates, and 10 μM of each compound was added; the final DMSO concentration was less than 0.1%. Parasites were initially incubated for 72 h before addition of lysis buffer (20mM Tris-HCl, 5mM EDTA, 0.008% saponin, 0.08% Triton X-100) supplemented with 0.04% SYBR™ Green I Nucleic Acid (10,000 × in DMSO, Invitrogen), then the microplates were returned to culture for 4 h at room temperature and read in a microplate fluorimeter (Cytation 3 M, Biotek) at excitation 485 nm–emission 530 nm. A control drug for total growth inhibition, a non-drug well and uninfected RBCs were included as positive and negative controls, respectively. The percentage (%) of inhibition was calculated as follows: 1-(fluorescence of treated/nontreated cultures) × 100. […] To do this, parasite cultures were exposed to serial two-fold dilutions of the test compounds ranging from 10 to 0.078 μM. Controls of uninfected RBCs and CQ-treated infected RBCs were included, and the assays were performed in triplicate.

[2] = tested on: Galleria mellonella; experiment: In vivo toxicity in Galleria mellonella larvae; design: G. mellonella Toxicity class: scale not given here; conditions: class from LD50 in larvae
Description: (§1) In vivo toxicity was performed using the invertebrate Galleria mellonella model. Healthy, beige larvae weighing 200–250 mg were obtained from the Entomology laboratory at the University and selected for toxicity assays. Groups of ten six-instar larvae were inoculated with 10 μL or 20 μL of each compound at concentrations equivalent to 3000 mg/kg and incubated at 37 °C in darkness. […] The larvae were initially injected with 1000 mg/kg, and if most larvae (> 60%) survived after 5 days, the assay was performed using higher doses up to 3000 mg/kg (Piatek et al. [2021]).

[3] = In vivo toxicity in Galleria mellonella larvae; design: G. mellonella Toxicity class: scale not given here; conditions: Galleria mellonella, in vivo, other: injection; larvae, injection, survival monitored 5 days; read-out: G. mellonella LD50
Description: as §1

[4] = tested on: human RBCs; experiment: Hemolytic activity test; type: cell-based; conditions: human RBCs 2% hematocrit, 72 h, 37 °C, tested at 200, 100, 50, 25 μM
Description: The ability to induce membrane damage was assessed by testing the hemolytic activity of those compounds showing inhibition of parasite growth. The assay was adapted from Sousa et al. ([2021]) with modifications. Briefly, 180 μL of human RBCs adjusted to 2% hematocrit in phosphate buffered saline (PBS) were placed into a 96-well microplate and subsequently exposed to 200 μM of each selected compound. As a positive control, 20 μL of 1% sodium dodecyl sulfate (SDS) was added, and a non-drug well was included as a negative control. Free hemoglobin was measured after 72 h of incubation at 37 °C by spectrophotometry at 540 nm (Cytation 3 M, Biotek). Nonspecific absorbance was corrected by subtracting the blank (PBS). Determinations were done by triplicate in at least two independent experiments. Compounds with hemolytic activity at 200 μM were further tested at 100 μM, 50 μM, and 25 μM dilutions.

[5] = tested on: P. falciparum; design: method as in Shahinas et al. [2013]; conditions: in vitro against P. falciparum; ref Shahinas et al. [2013]; cited from earlier work
[6] = Plasmodium falciparum, 3D7, 72 h

| Structure (SMILES) | IC50 [1] [nM] | IC50 [1, 6] [nM] | G. mellonella Toxicity class [2] | LD50 at 5 days [3] [mg/kg] | Hemolytic activity [4] | IC50 ([1]; listed as 286) [nM] | Hemolytic activity ([4]; listed as 296) [µM] | IC50 [5] [nM] | IC50 ([1]; listed as 7) [nM] | IC50 ([1]; listed as 712) [nM] |
| --- | --- | --- | --- | --- | --- | --- | --- | --- | --- | --- |
| CC(=O)N1N=C(c2cccc(Nc3ccncc3)c2)CC1c1ccccc1 (stereo not drawn) [UV292] | 660 ± 200 | < 1000 | 5 | 3000 | >100 µM | – | – | – | – | – |
| CC(=O)N1N=C(c2cccc(Nc3ccncc3)c2)CC1c1ccc2c(c1)OCO2 (stereo not drawn) [UV290] | – | 1580 to 2750 | – | – | – | – | – | – | – | – |
| CC(=O)N1N=C(c2cccc(Nc3ccncc3)c2)CC1c1ccc(Br)cc1 (stereo not drawn) [UV286] | < 1000 | – | 4 | 1500 | >200 µM | 444 ± 100 | – | – | – | – |
| Clc1ccc(N2N=C(c3cccc(Nc4ccncc4)c3)CC2c2ccc3c(c2)OCO3)cc1 (stereo not drawn) [UV306, 4-(pyridyl-aminophenyl)-methyledioxyphenyl-N-(4-chlorophenyl)pyrazoline] | 710 ± 100 | < 1000 | 5 | 2000 | 25 µM | – | – | – | – | – |
| Nc1nc(N)c2c(n1)NC(c1ccc(Cl)cc1)CC(c1cccc(Nc3ccncc3)c1)=N2 (stereo not drawn) [UV797, Pyridyl-amino-pyrimido-diazepine] | 353 ± 19 | – | 5 | 2000 | > 200 µM | – | – | – | – | – |
| CC(=O)N1N=C(c2cccc(Nc3ccncc3)c2)CC1c1ccc(F)cc1 (stereo not drawn) [UV288] | – | 1580 to 2750 | – | – | – | – | – | – | – | – |
| COc1ccc(C2CC(c3cccc(Nc4ccncc4)c3)=NN2C(C)=O)cc1 (stereo not drawn) [UV287] | – | 1580 to 2750 | – | – | – | – | – | – | – | – |
| COc1ccc(C2CC(c3cccc(Nc4ccncc4)c3)=NN2c2ccccc2)cc1 (stereo not drawn) [UV296] | 629 ± 100 | < 1000 | 5 | 2000 | induced RBC hemolysis at lower concentrations | – | >25 | – | – | – |
| CC(=O)N1N=C(c2cccc(Nc3ccncc3)c2)CC1c1ccc(C)cc1 (stereo not drawn) [UV291] | – | 1580 to 2750 | – | – | – | – | – | – | – | – |
| Nc1nc(N)c2c(n1)NC(c1ccccc1)CC(c1cccc(Nc3ccncc3)c1)=N2 (stereo not drawn) [UV802, Pyridyl-amino-pyrimido-diazepina] | 178 ± 40 | – | 5 | 2000 | > 200 µM | – | – | – | – | – |
| Cc1ccc(C2CC(c3cccc(Nc4ccncc4)c3)=Nc3c(N)nc(N)nc3N2)cc1 (stereo not drawn) [UV801, Pyridyl-amino- pyrimido- diazepine] | 537 ± 30 | < 1000 | 5 | 2000 | >200 µM | – | – | – | – | – |
| COc1cc(C2CC(c3cccc(Nc4ccncc4)c3)=NN2c2ccccc2)cc(OC)c1OC (stereo not drawn) [UV297] | 991 ± 280 | < 1000 | 5 | 2000 | >200 µM | – | – | – | – | – |
| CC(C)NCCCn1c(Sc2cc3c(cc2I)OCO3)nc2c(N)ncnc21 [PU-H71] | – | – | – | – | – | – | – | 110 | – | – |
| O=C(/C=C/c1cccc(Nc2ccnc3cc(Cl)ccc23)c1)c1ccc2c(c1)OCO2 [UV7, Quinolinyl-amino chalcone] | ~1000 | > 1000 | 5 | 2000 | > 200 µM | – | – | – | 1070 ± 200 | – |
| Nc1ncnc2c1N=C(c1cccc(Nc3ccncc3)c1)CC(c1ccccc1)N2 (stereo not drawn) [UV712, Pyridyl-amino-pyrimido-diazepine] | ~1000 | > 1000 | 4 | 1000 | >200 µM | – | – | – | – | 1080 ± 200 |
| CC(=O)N1N=C(c2cccc(Nc3ccncc3)c2)CC1c1ccc(Cl)cc1 (stereo not drawn) [UV285] | – | 1580 to 2750 | – | – | – | – | – | – | – | – |
